What was measured:
[1] = biological target: T1, mGluR5-PP2A complex (Mus musculus, UniProt Q3UVX5); test: Coimmunoprecipitation of PP2Ac with mGluR5 in primary neurons; type: cell-based; details: primary neuronal cultures, 1 mM BMAA
T1 construct: endogenous in cells; host or cells: mouse primary hippocampal neuronal cultures
Protocol: Mouse hippocampal cell proteins were prepared with low-stringency lysis buffer [50 mM Hepes (pH 7.4), 10% (vol/vol) glycerol, 1.5 mM MgCl2, 5 mM NaF, 1 mM Na3VO4, 1 mM EDTA, 1 mM EGTA, 1% Nonidet P-40, 5 mM AEBSF, 10 μg/mL aprotinin, leupeptin, pepstatin] and were homogenized by several freeze-thaw cycles followed by water bath sonication. The homogenate was centrifuged at 14,000×g at 4° C. for 15 min. For transfection experiments with vector (DsRed) and with DsRed-PP2A catalytic subunit (PP2Ac), primary neurons were processed in a similar manner. The supernatants then were used for immunoprecipitation with mouse anti-PP2A (1D6; Millipore) followed by incubation with protein G-Sepharose (Thermo Scientific). The Western blots of immunoprecipitates were probed with rabbit anti-mGluR5 (Millipore) and rabbit anti-PP2Ac [R123d] (FIG. 55).

[2] = tested on: mixed cortical cultures; details: injury induced by amyloid-β, 1-methyl-4-phenylpyridinium or methylmercury; cited from earlier work
[3] = biological target: bovine purified PP2A holoenzyme (Bos taurus, UniProt P67774); test: In vitro PP2A activity assay with purified PP2A holoenzyme; type: biochemical; details: purified PP2A holoenzyme in the presence or absence of BMAA
Source text: No effect of BMAA on PP2A activity was found.

[4] = tested on: PP2Ac; test: PP2A regulatory factors (pTyr307-PP2Ac, demethylated Leu309, I1PP2A, I2PP2A) by Western blots in rat brain slices; type: cell-based; details: BMAA-treated rat brain slices (1 mM, 2 h)
Protocol: Male Wistar rats (Charles River Laboratories), 2-3 months old, were anesthetized by i.p. injection with 50 mg/kg Nembutal. The animals were decapitated when deeply anesthetized. The brains were removed immediately and cooled in ice-cold (4° C.) oxygenated artificial cerebrospinal fluid (aCSF) consisting of 126 mM NaCl, 3.5 mM KCl, 1.2 mM NaH2PO4, 1.3 mM MgCl2, 2 mM CaCl2, 11 mM D(+) glucose, and 25 mM NaHCO3 (pH 7.4) for 7-8 min. Each brain then was divided sagittally, and 400-μm-thick coronal slices were made with a Camden Vibraslicer (WP, Inc.). The slices were transferred into a chamber containing the oxygenated aCSF and were incubated at 33° C. for 2 h in the presence or absence of 1 mM, β-N ? methylamino-L-alanine (BMAA) dissolved in 10 mM NaHCO3 (Sigma). The oxygenation of the aCSF was carried out by bubbling the solution with a mixture of 95% O2 and 5% CO2 during the entire procedure. […]
Protein was fractionated by 10% SDS/PAGE, transferred to PVDF membrane, and then blocked with 5% skim milk for 1 h at room temperature. […] The protein bands were detected with the enhanced chemiluminescence reagents (Thermo Scientific). Band intensity was measured by Multi-Gauge V3 software (Fuji Photo Film).

[5] = tested on: PP2A regulated protein kinases; test: Phosphorylated PP2A regulated protein kinases by Western blots in rat brain slices; type: cell-based; details: BMAA-treated rat brain slices (1 mM, 2 h)
Protocol: Male Wistar rats (Charles River Laboratories), 2-3 months old, were anesthetized by i.p. injection with 50 mg/kg Nembutal. The animals were decapitated when deeply anesthetized. The brains were removed immediately and cooled in ice-cold (4° C.) oxygenated artificial cerebrospinal fluid (aCSF) consisting of 126 mM NaCl, 3.5 mM KCl, 1.2 mM NaH2PO4, 1.3 mM MgCl2, 2 mM CaCl2, 11 mM D(+) glucose, and 25 mM NaHCO3 (pH 7.4) for 7-8 min. Each brain then was divided sagittally, and 400-μm-thick coronal slices were made with a Camden Vibraslicer (WP, Inc.). The slices were transferred into a chamber containing the oxygenated aCSF and were incubated at 33° C. for 2 h in the presence or absence of 1 mM, β-N ? methylamino-L-alanine (BMAA) dissolved in 10 mM NaHCO3 (Sigma). The oxygenation of the aCSF was carried out by bubbling the solution with a mixture of 95% O2 and 5% CO2 during the entire procedure. At the end of incubation, the brain slices were homogenized with homogenizing buffer [50 mM Tris·HCl (pH 7.4), 8.5% (wt/vol) sucrose, 2 mM EDTA, 2 mM EGTA, 10 mM (3-mercaptoethanol, 5 mM benzamidine, 0.5 mM 4-(2-Aminoethyl) benzenesulfonyl fluoride hydrochloride (AEBSF), 4 μg/mL pepstatin A, and 10 μg/mL each of aprotinin and leupepin] at a ratio of 9.0 mL buffer/1.0 g tissue slices. The homogenates were divided into two parts. One part was centrifuged at 16,000×g for 10 min, and the resulting supernatant was used to assay protein phosphatase 2A (PP2A) activity. Into the other half, an equal volume of phosphatase-inhibitor mixture (20 mM 3-glycerophosphate, 2 mM Na3VO4, and 100 mM NaF) was added immediately, and the samples were used for Western blots.
(§1) Protein was fractionated by 10% SDS/PAGE, transferred to PVDF membrane, and then blocked with 5% skim milk for 1 h at room temperature. The membrane was probed with anti-IPP2A (5G6, 1:1, 500) (7), anti-I2P2A (10E7, 1:1, 600) (7), anti-tau ˜92e; 1:5,000) (8), anti-tau (R134d; 1:5 000) (9), anti-tau pSer^262/^356 (12E8; 1:500) (10, anti-tau pSer^199, anti-tau pThr^205, anti-tau pThr^212, and pSer^396 (1:1,000) (Biosource), anti-GAPDH (1:2,000) (Santa Cruz Biotechnology), anti-PP2Ac (1:10 000) (BD Transduction Lab), anti pY^307-PP2A and anti-DML^309-PP2A (1:1,000) (Millipore), anti-GSK-3(α/β), anti-pS^9-GSK-3 β, anti-ERK1/2, anti-pT^202/Y^204-ERK1/2, anti-MEK1/2, anti-p9^17/221-MEK1/2, anti-CAMKII, anti-pT^286-CAMKII, anti-p70 S6 kinase, anti-pT^389-p70 S6 kinase, anti-SAPK/JNK, and anti-pT^183/Y^185-SAPK/JNK (1:1,000) (Cell Signaling Technology). The membrane then was incubated with HRP-conjugated secondary antibody (Jackson ImmunoResearch). The protein bands were detected with the enhanced chemiluminescence reagents (Thermo Scientific). Band intensity was measured by Multi-Gauge V3 software (Fuji Photo Film).

[6] = tested on: tau; test: i.c.v. infusion of BMAA in neonatal rats: hyperphosphorylation of tau; type: in vivo, rat; details: i.c.v. BMAA 1.3 μmol
Protocol: Wistar rats were bred and maintained under standard environmental conditions (12-h light/dark cycles, 22° C.) and were allowed free access to food and water. The animal experiments were carried out in strict compliance with protocols approved by the Animal Welfare Committee of New York State Institute for Basic Research in Developmental Disabilities. On postnatal d 2 (PND2), pups were individually cryo-anesthetized on ice, and 2 μL of 1.3 μmol BMAA in PBS was injected into lateral ventricle using a 10-μL Hamilton syringe (Hamilton Syringe Co.). Control animals were injected with PBS in an identical manner. After infusion of BMAA, rats were killed within 1, 24, 48, 72, or 96 h, and the brains were used for Western blots and PP2A activity assays.
as §1

T1 sequence (Q3UVX5 19-1203, one chain of several): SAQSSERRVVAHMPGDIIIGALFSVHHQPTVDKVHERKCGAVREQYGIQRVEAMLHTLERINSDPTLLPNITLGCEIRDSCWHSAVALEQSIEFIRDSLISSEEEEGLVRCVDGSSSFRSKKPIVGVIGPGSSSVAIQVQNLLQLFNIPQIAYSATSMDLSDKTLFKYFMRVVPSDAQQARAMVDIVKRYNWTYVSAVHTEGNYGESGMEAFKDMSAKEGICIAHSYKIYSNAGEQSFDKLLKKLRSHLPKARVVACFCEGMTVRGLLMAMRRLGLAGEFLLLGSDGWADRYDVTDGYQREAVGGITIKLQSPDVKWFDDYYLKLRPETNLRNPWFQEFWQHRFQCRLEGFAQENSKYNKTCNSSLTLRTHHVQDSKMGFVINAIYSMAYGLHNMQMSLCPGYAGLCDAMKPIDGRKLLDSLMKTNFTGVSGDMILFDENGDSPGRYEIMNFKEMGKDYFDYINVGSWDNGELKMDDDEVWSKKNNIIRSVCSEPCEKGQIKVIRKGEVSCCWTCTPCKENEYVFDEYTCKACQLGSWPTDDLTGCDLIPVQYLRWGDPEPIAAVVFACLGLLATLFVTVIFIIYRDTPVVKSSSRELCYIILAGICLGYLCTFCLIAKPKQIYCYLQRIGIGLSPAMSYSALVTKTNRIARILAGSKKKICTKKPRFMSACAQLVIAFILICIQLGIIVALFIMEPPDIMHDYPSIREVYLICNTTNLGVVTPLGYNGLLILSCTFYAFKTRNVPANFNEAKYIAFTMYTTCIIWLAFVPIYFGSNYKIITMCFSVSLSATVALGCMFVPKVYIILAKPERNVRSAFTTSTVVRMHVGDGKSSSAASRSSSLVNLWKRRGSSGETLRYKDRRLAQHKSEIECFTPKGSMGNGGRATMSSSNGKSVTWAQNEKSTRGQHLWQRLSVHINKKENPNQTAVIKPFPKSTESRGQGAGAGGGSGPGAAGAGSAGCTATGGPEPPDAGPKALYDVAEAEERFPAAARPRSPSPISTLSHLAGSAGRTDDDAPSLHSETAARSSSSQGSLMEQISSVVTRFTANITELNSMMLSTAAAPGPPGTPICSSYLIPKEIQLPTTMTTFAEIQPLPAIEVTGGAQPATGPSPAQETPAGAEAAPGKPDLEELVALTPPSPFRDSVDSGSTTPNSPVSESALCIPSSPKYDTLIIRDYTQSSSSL
bovine purified PP2A holoenzyme, sequence (Q32PI5 whole entry): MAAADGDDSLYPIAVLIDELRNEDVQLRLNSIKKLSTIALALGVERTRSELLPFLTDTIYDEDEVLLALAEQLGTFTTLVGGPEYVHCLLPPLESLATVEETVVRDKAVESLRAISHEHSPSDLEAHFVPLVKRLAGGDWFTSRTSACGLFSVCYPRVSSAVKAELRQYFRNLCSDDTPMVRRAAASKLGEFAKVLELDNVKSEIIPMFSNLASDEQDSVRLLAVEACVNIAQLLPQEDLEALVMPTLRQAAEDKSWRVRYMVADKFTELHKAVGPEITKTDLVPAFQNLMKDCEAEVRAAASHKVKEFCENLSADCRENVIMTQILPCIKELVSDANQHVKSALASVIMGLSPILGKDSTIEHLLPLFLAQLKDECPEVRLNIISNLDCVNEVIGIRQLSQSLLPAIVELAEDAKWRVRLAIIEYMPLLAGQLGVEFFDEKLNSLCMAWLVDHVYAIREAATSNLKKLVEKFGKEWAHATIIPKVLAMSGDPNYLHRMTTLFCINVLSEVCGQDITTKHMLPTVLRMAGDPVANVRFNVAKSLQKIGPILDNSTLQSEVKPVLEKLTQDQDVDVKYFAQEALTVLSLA
bovine purified PP2A holoenzyme, sequence (P67774 whole entry): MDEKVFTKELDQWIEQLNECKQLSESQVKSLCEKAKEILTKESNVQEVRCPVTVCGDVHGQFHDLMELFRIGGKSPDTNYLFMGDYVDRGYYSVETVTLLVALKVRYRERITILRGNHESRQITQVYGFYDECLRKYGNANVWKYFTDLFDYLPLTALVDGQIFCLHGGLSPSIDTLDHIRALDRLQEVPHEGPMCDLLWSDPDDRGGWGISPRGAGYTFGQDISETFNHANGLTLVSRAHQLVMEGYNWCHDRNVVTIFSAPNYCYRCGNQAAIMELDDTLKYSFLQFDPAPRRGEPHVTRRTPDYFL

SMILES: CNC[C@H](N)C(=O)O [BMAA, β-N-methylamino-L-alanine]
- association of PP2Ac with mGluR5 [1]: led to the dissociation
- BMAA concentration potentiating neuronal injury [2]: 10 µM
- direct effect on PP2A activity [3]: No effect
- increase in phosphorylation of PP2Ac at Tyr307 [4]: 3.7 fold
- level of phosphorylated GSK-3β [5]: no significant changes
- level of phosphorylated JNK [5]: no significant changes
- level of phosphorylated p70 S6 kinase [5]: no significant changes
- level of phosphorylated/activated CaMKII [5]: increased noticeably
- level of phosphorylated/activated ERK1/2 [5]: increased noticeably
- level of phosphorylated/activated MEK1/2 [5]: increased noticeably
- time of peak hyperphosphorylation of tau at Ser262/356 [6]: 24 to 48 h
- time of peak hyperphosphorylation of tau at Thr212 [6]: 24 to 48 h
- time of peak phosphorylation of tau at Ser199 [6]: 72 to 96 h
- time of peak phosphorylation of tau at Ser396 [6]: 72 to 96 h
- time of peak phosphorylation of tau at Thr205 [6]: 72 to 96 h
